The IC50 is the concentration that inhibits the measured activity by half.

The target of data set [1] is KRAS G12C protein (GDP-KRAS-4B-G12C) (Homo sapiens, UniProt P01116, G12C). The data set is described as follows: Assay for binding rate to KRAS G12C protein by LC-MS method. As to conditions: 3 uM compound. How it is done:
Assay for Binding Rate to KRAS G12C Protein by LC-MS Method
A 10 mM stock solution of a test compound in DMSO was prepared. […] An equal volume of GDP buffer (20 mM Hepes, pH 7.5, 50 mM NaCl, 0.5 mM MgCl2, 10 mM EDTA, 2 mM DTT, GDP) was added to prepare KRASG12C protein loaded with GDP.
After incubation at room temperature for 5 min and 30 min, the reaction was terminated by addition of 5 μL of 5% formic acid. After being centrifuged at 15,000 rpm for 10 min, the mixture was subjected to LC-MS analysis and data analysis.
The percent binding of a test compound to KRASG12C protein was calculated as: Percent binding to KRAS G12C (%)=peak height of conjugate of test compound and KRAS G12C protein/[peak height of conjugate of test compound and KRAS G12C protein+peak height of free KRAS G12C protein] x 100.

Data set [2] has as its system ERK phosphorylation in H358 cells. The data set is described as follows: In-cell western blot assay for ERK phosphorylation in H358 cells. The format is cell-based. The note with it: Homo sapiens, NCI-H358, 10000 nM to 0.051 nM, 3-fold dilution, read-out: H358 p-ERK IC50. The procedure: In-Cell Western Blot Assay for ERK Phosphorylation in H358 Cells
H358 cells were thawed and pre-cultured for 3 days to be in a good state (RPMI 1640+10% FBS+1% P/S). The cells were plated on to a 384-well plate, and a test compound, positive control compounds (AMG510 and isomers thereof) and a negative control were added. The compound was at concentrations from 10000 nM to 0.051 nM. 3-fold dilution was performed. The mixture was well mixed and incubated at 37° C. and 5% CO2. The cells were washed with PBS and suspended in methanol. After another washing with PBS, a blocking buffer was added. After 1 h of blocking at room temperature, a primary antibody mixture (rabbit anti pERK, mouse anti GAPDH) was added, followed by overnight incubation at 4° C. The cells were washed 3 times with PBST, and a secondary antibody mixture (goat anti rabbit 800CW and goat anti mouse 680RD) was added, followed by incubation at room temperature in the dark. The 384-well plate was reversed and centrifuged at 1000 rpm for 1 min, and read on an Odyssey CLx fluorescence imaging system for fluorescence signal values, which was corrected using DMSO and ARS1620. The specific calculation is as follows:
Relative Signal=Signal Value(total channel 800)/Signal Value(total channel 700)
Relative pERK=(Sample−Ave_L)/(Ave_H−Ave_L).
The IC50 values of the compounds were calculated using a four-parameter fitting algorithm, specifically as follows:
Y=Bottom+(Top−Bottom)/(1+10^((Log IC50−X)×HillSlope))

The nature of data set [3]: Plasma protein binding (PPB), RED plate dialysis, human plasma. The format is in vitro ADME. The note with it: 1 μM, 37° C., 5 h, read-out: PPB (% free state) H. The procedure: (§1) Human (H), Rat (R) and Mouse (M) Plasma Protein Binding (PPB)
(§2) A test compound and a positive control were each mixed with blank plasma to a final concentration of 1 μM. The mixture was added to a RED plate plasma sample chamber, followed by addition of a dialysis buffer in the buffer chamber. The sample was prepared in triplicate for each compound. The chambers were sealed, and the plate was incubated at 37° C. with shaking at 60 rpm for 5 h. After incubation, the samples were transferred out of the plasma chamber and the buffer chamber and treated as shown in Table 5. After centrifugation at 5594 g for 15 min, the supernatant was collected and analyzed by LC/MS/MS.
(§3) The compound concentration in each sample was expressed in terms of the ratio between peak areas (ratio of peak area of compound to peak area of internal standard) by mass spectrometry analysis, and the plasma protein binding was calculated according to the following formulas.
(§4) % free state=(buffer chamber peak area ratio/plasma chamber peak area ratio)×100%
(§5) % bound state=100%−% free state

Data set [4] concerns plasma proteins. Described as above. The format is in vitro ADME. As to conditions: versus SZ-014138. How it is done: as §1, §2, §3, §4, §5
The nature of data set [5]: Plasma protein binding (PPB), RED plate dialysis, rat plasma. The format is in vitro ADME. As to conditions: 37° C., read-out: PPB (% free state) R. How it is done: as §1, §2, §3, §4, §5
Data set [6] can be described thus: Plasma protein binding (PPB), RED plate dialysis, mouse plasma. The note with it: 37° C., read-out: PPB (% free state) M. The format is in vitro ADME. How it is done:
as §1, §2, §3, §4, §5

In the case of `C=CC(=O)N1CCN(c2nc(=O)n(-c3c(C(C)C)ncnc3C(C)C)c3c2cc(F)c(-c2c(F)cccc2F)[n+]3[O-])[C@@H](C)C1` [SZ-014053], in data set [1] (5 min incubation at room temperature), the “Binding rate to KRAS G12C protein (LC-MS POC, %) 3 uM/5 min” value is 85.6%. The “Binding rate to KRAS G12C protein (LC-MS POC, %) 3 uM/30 min” value in data set [1] (30 min incubation at room temperature) worked out at 100.0%. Besides, in data set [2], the IC50 amounted to 41 nM. The fraction unbound at 5 h, 1 μM in data set [3] was found to be 0.587; in data set [5], 0.616; in data set [6] it was 0.377. Besides, in data set [4], the “molar concentration not bound to plasma proteins, times higher than reference compound SZ-014138” value is on record as “no less than 4 times”.
